Source: patent US5496856A, “Aspartame for its application as a therapeutically active substance” (priority 1993, dated 1996)
Entries after “also recorded” stand apart in the source; their conditions may differ. Peptide text beside a SMILES is read from it.

Legend:
[1] = Serum and urine assays of ochratoxin (urinary elimination); type: in vivo, rats
Protocol: (§1) The animals used in this experiment are male rats of the Wistar strain weighing 160±10 g.
(§2) The aspartame is administered by gavage, at the same time as the ochratoxin A, every 48 hours for 3 weeks.
(§3) Group I: control rats (blanks)
(§4) Group II: control rats treated with 0.1 M NaHCO3, pH 7.4
(§5) Group III: rats treated with ochratoxin A (289 μg/kg)
(§6) Group IV: rats treated with ochratoxin A (289 μg/kg)+aspartame (25 mg/kg).
(§7) The control and treated rats are placed in a metabolic cage for 24 hours for urine sampling and then sacrificed.

[2] = Plasma concentration of aspartame after oral administration; type: in vivo; conditions: within 24h, per os
glomerular filtration [3] = conditions: mice
Protocol: Male mice of the Swiss strain weighing 32±2 g are distributed into cages in groups of 5. The animals are classified in order of increasing weight and distributed randomly into 4 groups of 5 mice (homogeneous distribution by randomization).
An amount of ochratoxin A corresponding to 289 μg/kg of body weight is given to the mice via an esophageal tube every 48 h for one week; the toxin is dissolved in 0.3 ml of 0.1M NaHCO3, pH 7.4.
0.3 ml of 0.1 M NaHCO3, pH 7.4, is given in the same way to the mice used as controls.
4 groups of 5 mice were studied.
Group I: control mice treated with 0.1 M NaHCO3, pH 7.4
Group II: mice treated with ochratoxin A (289 μg/kg)
Group III: mice treated with ochratoxin A (289 μg/kg)+aspartame (30 mg/kg)
Group IV: control mice treated with aspartame only.
The aspartame is administered in 0.3 ml of H2 O one hour after the last administration of ochratoxin A.
The mice are placed in a metabolic cage for 15 hours and then sacrificed.
The creatinine is assayed in the 15-hour urine and serum.

[4] = Toxic oxidative effects of ochratoxin A in vivo and in vitro
glomerular filtration [5] = experiment: Serum and urine creatinine in ochratoxin A-treated rats; type: in vivo, male rats of the Wistar strain
Protocol: The animals used in this experiment are male rats of the Wistar strain weighing 160±10 g. The animals are classified in order of increasing weight and distributed randomly into 4 groups of 6 rats (homogeneous distribution by randomization).
An amount of ochratoxin A corresponding to 289 μg/kg of body weight is given to the rats by gavage every 48 hours for 3 weeks; the toxin is dissolved in 0.3 ml of a 0.1 M solution of NaHCO3, pH 7.4.

[6] = Urine proteins in rats treated with ochratoxin A; type: in vivo; conditions: aspartame 25 mg/kg + ochratoxin A 289 μg/kg, 3 weeks
Protocol: as §1, §2, §3, §4, §5, §6, §7

tubular cells = experiment: Urinary renal enzyme activities (LAP, PAL, LDH, γ-GT) in rats treated with ochratoxin A; type: in vivo; conditions: aspartame 25 mg/kg + ochratoxin A 289 μg/kg, 3 weeks
Protocol: as §1, §2, §3, §4, §5, §6, §7

human plasma proteins [7] = experiment: OTA binding to human plasma proteins, condition (i): aspartame in upper (plasma) compartment; type: in vitro ADME
Protocol: (§8) A further study was performed in order to determine the effect of aspartame on OTA binding on human plasma proteins in vitro.
(§9) An in-vitro study was performed on plasma samples obtained from healthy human volunteers, from a French blood bank (Centre de transfusion sanguine in Bordeaux), using citrate as anticoagulant. Blood samples were centrifuged at 1800 g for 30 minutes. This pooled human plasma contained 41±3 g of proteins per liter.
(§10) Static diffusion cells (polypropylene, homemade according to the model provided by Nalgene, USA) containing two compartments (upper and lower) separated by a dialysing membrane having a 10 000 D exclusion limit (Sigma Chemical, USA) were used. This membrane allows OTA and aspartame diffusion and not protein diffusion.
(§11) A human plasma sample was placed in the upper compartment and a medium (RPMI 1640, Sigma chemical, USA) in the lower one.
(§12) The plasma binding properties of OTA were evaluated under two different conditions:
(i) The aspartame at a concentration of 10 μg/ml was added in the upper compartment containing human plasma proteins before introducing OTA at three different concentrations (20, 100, and 500 μg/ml) in the lower compartment;
(§13) OTA concentration in the upper compartment was determined by HPLC (Mobile phase: methanol, acetonitrile, acetic acid, sodium acetate 5 mM (300: 300: 400: 14 v/v/v/v); injection volume 50 μl; flow rate 1 ml/min; run time for one cycle: 10 min and fluorescence detection (excitation at 340 nm and emission at 465 nm).
(§14) Before extraction of OTA from the plasma, all the studied samples of plasma, which had already fixed OTA, were dialysed against free OTA RPMI medium for at least 15 minutes, one or several times, until no more OTA was found in the lower compartment.
(§15) The results obtained under condition (i) as defined hereinabove are reported in Table I, whereas the results obtained under condition (ii) are reported in Table II.

renal cells = experiment: Entry of ochratoxin into renal cells; conditions: ochratoxin A with aspartame
DNA = DNA adducts by postlabeling with ATP gamma 32P in organs (genotoxicity); type: in vivo, rats
Protocol: as §1, §2, §7
The organs of the same animals were used for extraction of the DNA, which was analyzed by the technique of postlabeling with ATP gamma 32P in order to evaluate the genotoxicity by the presence of adducts with DNA bases.

human plasma proteins [8] = experiment: OTA binding to human plasma proteins, condition (ii): OTA with or without aspartame in lower compartment; type: in vitro ADME
Protocol: as §8, §9, §10, §11, §12
(ii) The upper compartment contained human plasma proteins only and OTA (20, 100 and 500 μg/ml) was added into the lower compartment alone or concommitantly with 10 μg/ml aspartame.
as §13, §14, §15
Under condition (ii) (Table II), the aspartame was put in the same compartment as OTA in the non-plasmatic compartment to mimic the stomach (the ration OTA/aspartame=1.5 to 36).

[9] = aspartame 30 mg/kg one hour after last ochratoxin A
[10] = rats, aspartame 25 mg/kg + ochratoxin A 289 μg/kg every 48 h, 3 weeks, gavage
[11] = OTA 20 μg/ml, 30 min, aspartame 10 μg/ml
[12] = OTA 20 μg/ml, 60 min, aspartame 10 μg/ml
[13] = OTA 20 μg/ml, 120 min, aspartame 10 μg/ml
[14] = OTA 100 μg/ml, 30 min, aspartame 10 μg/ml
[15] = OTA 100 μg/ml, 60 min, aspartame 10 μg/ml
[16] = OTA 100 μg/ml, 120 min, aspartame 10 μg/ml
[17] = OTA 500 μg/ml, 30 min, aspartame 10 μg/ml
[18] = OTA 500 μg/ml, 60 min, aspartame 10 μg/ml
[19] = OTA 500 μg/ml, 120 min, aspartame 10 μg/ml

## COC(=O)[C@H](Cc1ccccc1)NC(=O)[C@@H](N)CC(=O)O [Aspartame, methyl ester of L-aspartyl- L-phenylalanine] (H-Asp-Phe-OMe)
[1]; serum and urine assays, rats, aspartame 25 mg/kg + ochratoxin A, 3 weeks
  urinary elimination of ochratoxin: very substantially favors urinary elimination of the ochratoxin A; also recorded: significantly increases the urinary elimination of ochratoxin
[1]; summary statement
  effect on metabolism and elimination of ochratoxin A: slow down the metabolism and accelerate the elimination of ochratoxin A
[2]
  oral dose of aspartame giving plasma concentration of 10 mg/l: 400 to 600 mg
Glomerular filtration [3]; [9]
  effect on the increase in serum creatinine: very markedly reduces the increase in serum creatinine
  effect on urine creatinine: increases the level of urine creatinine, which is similar to the control values
Glomerular filtration [3]; aspartame 30 mg/kg with ochratoxin A 289 μg/kg
  effects on serum creatinine and serum creatinine/urine creatinine ratio (glomerular filtration): beneficial
[4]
  effect on toxic oxidative effects of ochratoxin A: opposes the toxic oxidative effects of ochratoxin A in vivo and in vitro
Glomerular filtration [5]; [10]
  level of serum creatinine: significant reduction in the level of serum creatinine
  level of urine creatinine: parallel increase in the level of urine creatinine, which is comparable to the control level
Glomerular filtration [5]; summary statement
  tubular and glomerular attacks caused by ochratoxin: protects the kidney from the tubular and glomerular attacks caused by ochratoxin
[6]
  effect on the ochratoxin-induced increase in the level of urine proteins: reduces the increase, induced by ochratoxin, in the level of urine proteins
Tubular cells
  effect on the increase in urinary enzymic activities caused by ochratoxin A: appreciably reduces the increase in the enzymic activities caused by ochratoxin A
  urinary enzymic activities vs controls: not being significantly different from those of the controls
Human plasma proteins [7]; [11]
  Quantities of OTA bound to plasma proteins, OTA + Aspartame (Table I): 157 ± 12 ng/mL
Human plasma proteins [7]; [12]
  Quantities of OTA bound to plasma proteins, OTA + Aspartame (Table I): 97 ± 4 ng/mL
Human plasma proteins [7]; [13]
  Quantities of OTA bound to plasma proteins, OTA + Aspartame (Table I): 15 ± 3 ng/mL
Human plasma proteins [7]; [14]
  Quantities of OTA bound to plasma proteins, OTA + Aspartame (Table I): 193 ± 17 ng/mL
Human plasma proteins [7]; [15]
  Quantities of OTA bound to plasma proteins, OTA + Aspartame (Table I): 74 ± 11 ng/mL
Human plasma proteins [7]; [16]
  Quantities of OTA bound to plasma proteins, OTA + Aspartame (Table I): 55 ± 15 ng/mL
Human plasma proteins [7]; OTA 100 μg/ml, aspartame 10 μg/ml
  OTA available that is bound as compared to control without aspartame: 4.5%
Human plasma proteins [7]; [17]
  Quantities of OTA bound to plasma proteins, OTA + Aspartame (Table I): 275 ± 41 ng/mL
Human plasma proteins [7]; [18]
  Quantities of OTA bound to plasma proteins, OTA + Aspartame (Table I): 296 ± 45 ng/mL
Human plasma proteins [7]; [19]
  Quantities of OTA bound to plasma proteins, OTA + Aspartame (Table I): 345 ± 51 ng/mL
Human plasma proteins [7]; OTA 500 μg/ml, aspartame 10 μg/ml
  OTA available that is bound to plasma proteins as compared to control without aspartame: 19.8%
Human plasma proteins [7]; OTA 20 to 500 μg/ml
  dependence of efficiency in preventing OTA binding on OTA concentration: inversely proportional to the concentrations of OTA
Human plasma proteins [7]; Table I, OTA 20 μg/ml, aspartame 10 μg/ml
  OTA available that is bound as compared to the control without aspartame: 2%
Human plasma proteins [7]; Table I, OTA concentrations as high as 20 μg/ml, aspartame 10 μg/ml
  efficiency in preventing the binding of OTA on human plasma proteins: about 98%
Human plasma proteins [7]; aspartame 10 μg/ml, i.e. 10 mg/l
  OTA bound (in words): practically no OTA bound
Human plasma proteins [7]; normal conditions, OTA concentrations lower than 20 μg/ml
  efficiency in preventing the OTA binding on human plasma proteins (conclusion): at least 95%
Renal cells
  concentration/entry of ochratoxin in renal cells: limiting the entry of ochratoxin into these cells; also recorded: reducing the concentration of ochratoxin in the renal cells
DNA; aspartame 25 mg/kg + OTA 289 μg/kg, 3 weeks
  DNA adducts in organs, aspartame and OTA: virtually complete disappearance of the DNA adducts; also recorded: comparable to those of the controls
DNA; results of the experiments performed
  nephrotoxic and genotoxic effects (overall conclusion): suppresses not only the nephrotoxic effects but also the genotoxic effects
Human plasma proteins [8]; [11]
  Quantities of OTA bound to plasma proteins, OTA + Aspartame (Table II): 159 ± 13 ng/mL
Human plasma proteins [8]; [12]
  Quantities of OTA bound to plasma proteins, OTA + Aspartame (Table II): 53 ± 6 ng/mL
Human plasma proteins [8]; [13]
  Quantities of OTA bound to plasma proteins, OTA + Aspartame (Table II): 39 ± 4 ng/mL
Human plasma proteins [8]; [14]
  Quantities of OTA bound to plasma proteins, OTA + Aspartame (Table II): 245 ± 15 ng/mL
Human plasma proteins [8]; [15]
  Quantities of OTA bound to plasma proteins, OTA + Aspartame (Table II): 459 ± 27 ng/mL
Human plasma proteins [8]; [16]
  Quantities of OTA bound to plasma proteins, OTA + Aspartame (Table II): 587 ± 38 ng/mL
Human plasma proteins [8]; [17]
  Quantities of OTA bound to plasma proteins, OTA + Aspartame (Table II): 516 ± 19 ng/mL
Human plasma proteins [8]; [18]
  Quantities of OTA bound to plasma proteins, OTA + Aspartame (Table II): 1127 ± 89 ng/mL
Human plasma proteins [8]; [19]
  Quantities of OTA bound to plasma proteins, OTA + Aspartame (Table II): 1789 ± 56 ng/mL
Human plasma proteins [8]; OTA in lower compartment (stomach), OTA as high as 20 μg/ml
  efficiency in preventing the binding of OTA on human plasma proteins: more than 95%
Human plasma proteins [8]; Table II, OTA 100 μg/ml, aspartame 10 μg/ml
  prevention of the binding of OTA: 50%
Human plasma proteins [8]; Table II, OTA 500 μg/ml, aspartame 10 μg/ml
  efficiency in preventing OTA binding (in words): no longer efficient
